Drawing on patent US20050209278A1, “Piperidinyl- and piperazinyl-sulfonylmethyl hydroxamic acids and their use as protease inhibitors” (priority 2002, published 2005), this text covers Ki for ten compounds.

Molecules are shown by their SMILES.

For one assay, the target named is T1, MMP-2 (Homo sapiens, UniProt P08253).
T1 construct: made in house; host or cells: MMP-2-transfected p2AHT2 cells
T1 sequence (P08253 110-660): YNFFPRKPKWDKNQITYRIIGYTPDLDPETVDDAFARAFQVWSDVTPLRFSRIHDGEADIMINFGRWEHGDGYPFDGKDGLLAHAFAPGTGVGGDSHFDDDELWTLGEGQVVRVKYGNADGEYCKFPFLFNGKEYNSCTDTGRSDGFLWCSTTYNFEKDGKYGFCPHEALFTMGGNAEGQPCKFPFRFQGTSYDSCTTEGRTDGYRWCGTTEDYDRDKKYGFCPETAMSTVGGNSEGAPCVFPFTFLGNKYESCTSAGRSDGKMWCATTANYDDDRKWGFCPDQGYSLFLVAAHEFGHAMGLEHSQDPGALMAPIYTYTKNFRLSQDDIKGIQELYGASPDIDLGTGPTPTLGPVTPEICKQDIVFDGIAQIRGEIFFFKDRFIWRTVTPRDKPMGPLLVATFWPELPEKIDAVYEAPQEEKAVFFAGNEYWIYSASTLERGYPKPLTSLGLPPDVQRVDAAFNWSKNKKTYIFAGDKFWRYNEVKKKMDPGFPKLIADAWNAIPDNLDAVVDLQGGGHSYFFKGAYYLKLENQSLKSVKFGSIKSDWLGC
The assay is described as follows: In vitro MMP inhibition, Ki determination (fluorogenic substrate II). It is filed as biochemical. Conditions: value not in parenthesis; read-out: MMP-2 Ki.

The target of a further assay is T2, MMP-13 (Homo sapiens, UniProt P45452).
T2 construct: made in house; host or cells: baculovirus / insect cells
The assay is described as above. As to conditions: value not in parenthesis; read-out: MMP-13 Ki. It counts as biochemical. The procedure, abridged:
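Ki determined with human recombinant MMP-13, baculovirus-expressed as proenzyme and activated with APMA. Fluorogenic MCA/Dpa substrate II at 4 μM (at or below Km) with low enzyme in Tris buffer pH 7.5 with CaCl2. Incubation was 1 h at room temperature, with fluorescence read at 330/420 nm.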

Consider `CCCCOc1ccc(N2CCN(S(=O)(=O)C3(C(=O)NO)CCOCC3)CC2)cc1` [Example 145], for which the inhibitory constant (Ki) (as a rule, a measure of affinity in units of concentration, obtained from inhibition or displacement) turned out to be 0.695 nM on MMP-2 and 0.347 nM on MMP-13.

For `CCCCc1ccc(N2CCN(S(=O)(=O)C3(C(=O)NO)CCN(c4ccc(C)cc4)CC3)CC2)cc1` [Example 146], the inhibitory constant (Ki) came out at 6.41 nM on MMP-2 and 9.38 nM at MMP-13.

Take `CCCCCc1ccc(N2CCN(S(=O)(=O)C3(C(=O)NO)CCN(c4ccc(C)cc4)CC3)CC2)cc1` [Example 147]: the Ki on MMP-2 was found to be 20.5 nM; on MMP-13, 7.35 nM.

In the case of `COCCN1CCC(C(=O)NO)(S(=O)(=O)N2CCN(c3ccc(OCCC(C)C)cc3)CC2)CC1` [Example 148], the inhibitory constant (Ki) was found to be 1.19 nM at MMP-2 and 0.24 nM at MMP-13.

As to `CCCCOc1ccc(N2CCN(S(=O)(=O)C3(C(=O)NO)CCN(c4ccccn4)CC3)CC2)cc1` [Example 149], the Ki at MMP-2 was found to be 1.89 nM; on MMP-13, 1.31 nM.

For the compound `CCCCOc1ccc(N2CCN(S(=O)(=O)C3(C(=O)NO)CCN(c4nc5ccccc5o4)CC3)CC2)cc1` [Example 150], the Ki on MMP-2 was 4.25 nM; at MMP-13, 11.2 nM.

Turning to `O=C(NO)C1(S(=O)(=O)N2CCN(c3ccc(SC(F)(F)F)cc3)CC2)CCN(Cc2ccccc2)CC1` [Example 152], the results for the inhibition constant (Ki) on MMP-2 and on MMP-13 were 0.871 nM and 5.74 nM, respectively.

`O=C(NO)C1(S(=O)(=O)N2CCN(c3ccc(OCCCC(F)(F)F)cc3)CC2)CCN(C2CC2)CC1` [Example 153]: the inhibitory constant (Ki) on MMP-2 was 0.502 nM; at MMP-13, 0.099 nM.

As to `CCCCOc1ccc(N2CCN(S(=O)(=O)C3(C(=O)NO)CCN(c4cccnc4)CC3)CC2)cc1` [Example 154], the Ki was determined as 1.07 nM on MMP-2 and 0.561 nM at MMP-13.

Turning to `CCCCOc1ccc(N2CCN(S(=O)(=O)C3(C(=O)NO)CCN(c4ncc(CC)cn4)CC3)CC2)cc1` [Example 155], the values for the Ki at MMP-2 and on MMP-13 were 1.83 nM and 3.36 nM, respectively.
